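Following 48 hours of exposure in 96-well plates, responses at five concentrations were used to interpolate endpoints linearly. GI50 marks 50% less growth.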 Active and inactive are the calls of the source. Rule as the data show it: active = GI50 up to about 1.1 µM and inactive = higher.
Experiments:
Assay in all cases: inhibition of tumour cell growth, NCI panel, 48 h
EKVX = test system: EKVX
CCRF-CEM = test system: CCRF-CEM
SF-295 = test system: SF-295
HCT-15 = test system: HCT-15
SNB-75 = test system: SNB-75
OVCAR-8 = test system: OVCAR-8
KM12 = test system: KM12
HCC 2998 = test system: HCC 2998
SR = test system: SR
COLO 205 = test system: COLO 205
PC-3 = test system: PC-3
MDA-MB-231 = test system: MDA-MB-231
IGROV-1 = test system: IGROV-1
MDA-N = test system: MDA-N
RXF 393 = test system: RXF 393
Malme-3M = test system: Malme-3M
A549 = test system: A549
HT-29 = test system: HT-29
MCF7 = test system: MCF7
MOLT-4 = test system: MOLT-4
SK-MEL-5 = test system: SK-MEL-5
UACC-257 = test system: UACC-257
CAKI-1 = test system: CAKI-1
SN12C = test system: SN12C
SW-620 = test system: SW-620
T47D = test system: T47D
K562 = test system: K562
NCI-H23 = test system: NCI-H23
HOP-62 = test system: HOP-62
TK-10 = test system: TK-10
RPMI-8226 = test system: RPMI-8226
UACC-62 = test system: UACC-62
SK-MEL-28 = test system: SK-MEL-28
HL-60 = test system: HL-60
786-0 = test system: 786-0
SK-OV-3 = test system: SK-OV-3
DU-145 = test system: DU-145
M14 = test system: M14
NCI-H226 = test system: NCI-H226
LOX IMVI = test system: LOX IMVI
OVCAR-5 = test system: OVCAR-5
HOP-92 = test system: HOP-92
OVCAR-3 = test system: OVCAR-3
SNB-19 = test system: SNB-19
SF-539 = test system: SF-539
HCT-116 = test system: HCT-116
ACHN = test system: ACHN
A498 = test system: A498
Hs-578T = test system: Hs-578T
U-251 = test system: U-251
NCI/ADR-RES = test system: NCI/ADR-RES
SF-268 = test system: SF-268
OVCAR-4 = test system: OVCAR-4
SK-MEL-2 = test system: SK-MEL-2
NCI-H460 = test system: NCI-H460
NCI-H522 = test system: NCI-H522
MDA-MB-435 = test system: MDA-MB-435

Measured: GI50

CCC1(c2ccccc2)Sc2ccccc2-n2cccc2C1=O (centres undefined)
inactive: EKVX > 10 µM | CCRF-CEM > 10 µM | SF-295 > 10 µM | SNB-75 > 10 µM | OVCAR-8 > 10 µM | KM12 7.8 µM | HCC 2998 > 10 µM | SR 3.79 µM | COLO 205 > 10 µM | PC-3 8.53 µM | MDA-MB-231 9.31 µM | IGROV-1 > 10 µM | MDA-N 3.5 µM | RXF 393 9.79 µM | Malme-3M 8.34 µM | A549 > 10 µM | HT-29 9.62 µM | MCF7 > 10 µM | MOLT-4 5.37 µM | SK-MEL-5 > 10 µM | UACC-257 > 10 µM | CAKI-1 > 10 µM | SN12C > 10 µM | SW-620 > 10 µM | T47D > 10 µM | K562 4.6 µM | NCI-H23 > 10 µM | HOP-62 > 10 µM | TK-10 > 10 µM | RPMI-8226 4.32 µM | UACC-62 > 10 µM | SK-MEL-28 > 10 µM | HL-60 4.12 µM | 786-0 > 10 µM | SK-OV-3 > 10 µM | DU-145 > 10 µM | M14 > 10 µM
8.79 µM: HCT-15

CN(NC(=O)CC(=O)NN(C)C(=S)c1ccccc1)C(=S)c1ccccc1 [ELESCLOMOL]
active: HT-29 < 0.01 µM | RPMI-8226 < 0.01 µM
inactive: EKVX 33.9 µM | SF-295 46 µM | NCI-H226 83.8 µM | HCC 2998 64.7 µM | SR 28.3 µM | IGROV-1 > 100 µM | MDA-N > 100 µM | LOX IMVI 35.4 µM | OVCAR-5 > 100 µM | HOP-92 > 100 µM | OVCAR-3 > 100 µM | SW-620 67 µM | TK-10 > 100 µM | SNB-19 84.7 µM | SF-539 > 100 µM | UACC-62 50.2 µM | SK-OV-3 > 100 µM | HCT-116 62.1 µM

Fc1c(F)c(F)c2c(c1F)CSc1nc3ccccc3n1-2
inactive: EKVX 5.16 µM | CCRF-CEM > 100 µM | SF-295 > 100 µM | SNB-75 > 100 µM | OVCAR-8 > 100 µM | NCI-H226 > 100 µM | KM12 > 100 µM | HCC 2998 > 100 µM | SR > 100 µM | COLO 205 > 100 µM | PC-3 > 100 µM | MDA-MB-231 > 100 µM | IGROV-1 > 100 µM | LOX IMVI > 100 µM | RXF 393 > 100 µM | ACHN > 100 µM | OVCAR-5 > 100 µM | Malme-3M > 100 µM | A549 > 100 µM | HT-29 > 100 µM | MCF7 > 100 µM | HOP-92 > 100 µM | MOLT-4 > 100 µM | SK-MEL-5 > 100 µM | A498 > 100 µM | UACC-257 > 100 µM | CAKI-1 > 100 µM | OVCAR-3 > 100 µM | Hs-578T > 100 µM | U-251 > 100 µM | NCI/ADR-RES > 100 µM | SN12C > 100 µM | SW-620 > 100 µM | T47D > 100 µM | SF-268 > 100 µM | K562 > 100 µM | NCI-H23 > 100 µM | HOP-62 > 100 µM | TK-10 > 100 µM | RPMI-8226 > 100 µM | SNB-19 > 100 µM | SF-539 > 100 µM | OVCAR-4 > 100 µM | UACC-62 > 100 µM | SK-MEL-28 > 100 µM | HL-60 > 100 µM | 786-0 > 100 µM | SK-MEL-2 > 100 µM | SK-OV-3 > 100 µM | NCI-H460 > 100 µM | DU-145 > 100 µM | NCI-H522 > 100 µM | M14 > 100 µM | MDA-MB-435 > 100 µM | HCT-116 > 100 µM
> 100 µM: HCT-15

Reference: ChEMBL document CHEMBL1201862, “PubChem BioAssay data set” (2004)
